In patent US6642386B2, “N-(4-carbamimidoyl-phenyl)-glycine derivatives” (Hoffmann-La Roche Inc., priority 2002, dated 2003):
≈ marks a conversion by molar mass, not a printed value. Read-outs that look alike come from different tables or passages of the source.

Legend:
human plasma = experiment: prothrombin time (PT) clotting test; format: biochemical; settings: inhibitor concentration which brought about a doubling of the PT clotting time, Innovin (recombinant human tissue factor)
Description: The activity of the low molecular weight substances can, moreover, be characterized in the “prothrombi” time” (PT) clotting test. The substances are prepared as a 10 mM solution in DMSO or DMSO/0.1M HCl (DHCl) and thereafter made up to the desired dilution in the same solvent. Thereafter, 0.25 ml of human plasma (obtained from whole blood anticoagulated with 1/10 volume of 108 mM Na citrate) was placed in the instrument-specific sample container. In each case 5 μl of each dilution of the substance-dilution series was then mixed with the plasma provided. This plasma/inhibitor mixture was incubated at 37° C. for 2 minutes. Thereafter, there were pipetted to the semi-automatic device (ACL, Automated Coagulation Laboratory (Instrument Laboratory)) 50 μl of plasma/inhibitor mixture in the measurement container. The clotting reaction was initiated by the addition of 0.1 ml of Innovin® (recombinant human tissue factor combined with calcium buffer and synthetic phospholipids(Dade Behring®, Inc.). The time up to the fibrin cross-linking was determined photooptically from the ACL. The inhibitor concentration, which brought about a doubling of the PT clotting time, was determined by means of a graph.

[1] = Solubility (phosphate buffer); format: physicochemical

| Compound | concentration doubling PT clotting time (human plasma) [µM] | Solubility (phosphate buffer, pH 6.5) ([1]; pH 6.5) [mg/ml] | melting point [°C] | solubility ([1]; aqueous buffer, pH 5 (stated in the cell), read-out: Solubility (phosphate buffer, pH 5)) [µg/mL] | solubility ([1]; pH 6.5, aqueous buffer, read-out: Solubility (phosphate buffer, pH 6.5)) [µg/mL] |
| --- | --- | --- | --- | --- | --- |
| CCOc1cc(O[C@@H]2CCCN(C)C2)c(F)c([C@@H](Nc2ccc(C(=N)N)cc2)C(=O)O)c1 (racemic) [Example 2.3, (RS)- and (SR)-(4-carbamimidoyl-phenylamino)-[5-ethoxy-2-fluoro-3-[(RS)-1-methyl-piperidin-3-yloxy]-phenyl]-acetic acid] | 2.1 | 2.2 | – | – | – |
| CCOc1cc(OCC2CCN(C)CC2)c(F)c(C(Nc2ccc(C(=N)N)cc2)C(=O)O)c1 (racemic) [Example 6.3, (RS)-(4-carbamimidoyl-phenylamino)-[5-ethoxy-2-fluoro-3-(1-methyl-piperidin-4-ylmethoxy)-phenyl]-acetic acid] | – | – | 232 | – | – |
| CCOc1cc(OC2CCN(C)CC2)c(F)c(C(Nc2ccc(C(=N)N)cc2)C(=O)O)c1 (racemic) [Example 13.3, (RS)-(4-carbamimidoyl-phenylamino)-[5-ethoxy-2-fluoro-3-(1-methyl-piperidin-4-yloxy)-phenyl]-acetic acid] | 3.6 | – | – | 3300 (≈ 7.42 mM) | – |
| CCOc1cc(OC2CCN(C)CC2)c(F)c([C@@H](Nc2ccc(C(=N)N)cc2)C(=O)O)c1 [Example 13.8, (R)-(4-carbamimidoyl-phenylamino)-[5-ethoxy-2-fluoro-3-(1-methyl-piperidin-4-yloxy)-phenyl]-acetic acid] | 1.6 | – | – | – | 5700 (≈ 12.8 mM) |
